Data as given in patent publication US12610947B2, “Tobacco axillary bud growth inhibitors and methods of inhibiting growth of tobacco axillary buds” (Drexel Chemical Company, priority 2020, dated 2026).

Columns and labels:
[1] = tested on: axillary shoots of TH241 tobacco; assay: Example 3 plot study: axillary shoot length and effectiveness vs non-treated control; format: in vivo; conditions: for Axillary Shoot Length Results: level assigned by shoot length; for Axillary Shoot Length Results / Effectiveness Results: dosage and applications per Table 8; for Effectiveness Results: compared to the non-treated control group; for Effectiveness: compared to non-treated control
Description: A third study was conducted comparing the effects of various treatment compositions on TH241 tobacco. The study was designed in random blocks. Each test plot was formed by two rows of ten tobacco plants. Each treatment was applied to three separate plots. […] The first application was performed when the first axillary shoots were observed. Additional applications were performed when new axillary shoots were observed. Shoots longer than 3 cm were manually removed at the time of each application. The applications were performed using a manual backpack sprayer, spraying at a low pressure above the plant toward the stalk so that the composition ran down the stalk, contacting the leaf axils. Approximately 13 to 26 milliliters of composition were applied to each plant. The phytotoxicity of the treatment compositions was assessed and recorded on a scale of 0 to 5 based on visible symptoms. The number and size of the axil shoots was recorded every 7 to 14 days following the initial treatment application. Axillary shoots were assigned a level according to their length. Shoots less than 3 cm in length were assigned to level 1. Shoots between 3 and 15 cm were assigned to level 2. Shoots between 15 and 30 cm were assigned to level 3. Shoots between 30 and 45 cm were assigned to level 4. Shoots between 45 and 60 cm were assigned to level 5. And shoots greater than 60 cm were assigned to level 6. An estimated average length of shoots in each plot could then be calculated according to the number of shoots assigned to each level. […] For this reason, treatments 1, 3, 4, and 5 were applied three times; treatments 2, 6, and 7 were applied twice; and treatments 8 and 9 were applied only once. The effectiveness of each treatment method was calculated as compared to the non-treated control group.

[2] = tested on: axillary shoots of tobacco; assay: Example 4 (Farm A and Farm B): axillary shoot length, effectiveness vs non-treated control, effective period; format: in vivo; conditions: Farm A, before second application
Description: (§1) A fourth study was conducted simultaneously by two separate farms (designated Farm A and Farm B) to further assess the effectiveness of the various treatments including under varying conditions.
The overall study was designed in random blocks. The treatments utilized were Biosucker, Bioantak (37 DOT), Antak-68.5, Beloukha, Sharpen 33%, and a control treatment that was untreated. On each farm, each test plot was formed by a single line of 20 plants. Each treatment was applied to three separate plots on each farm. […] The first application was applied when the first axillary shoots were observed. Additional applications were applied when the new axillary shoots were observed. Shoots longer than 3 cm were manually removed at the time of each application. […] The phytotoxicity of the treatment compositions was assessed and recorded on a scale of 0 to 5 based on visible symptoms. The number and size of the axil shoots was recorded every 6 to 8 days following the initial treatment application. […] An estimated average length of shoots in each plot could then be calculated according to the number of shoots assigned to each level.
The results of the length of axillary shoots measured at Farm A and Farm B are shown in Table 15 and Table 16, respectively. […]
The effectiveness of each treatment method and each farm was calculated as compared to the non-treated control group.

tobacco = assay: Example 4 (Farm A and Farm B): phytotoxicity on a scale of 0 to 5; conditions: in vivo
Description: as §1
The overall study was designed in random blocks. The treatments utilized were Biosucker, Bioantak (37 DOT), Antak-68.5, Beloukha, Sharpen 33%, and a control treatment that was untreated. On each farm, each test plot was formed by a single line of 20 plants. Each treatment was applied to three separate plots on each farm. […] The first application was applied when the first axillary shoots were observed. Additional applications were applied when the new axillary shoots were observed. Shoots longer than 3 cm were manually removed at the time of each application. The applications were performed using a manual backpack sprayer, spraying at a low pressure above the plant toward the stalk so that the composition ran down the stalk, contacting the leaf axils. Approximately 20 milliliters of composition were applied to each plant. The phytotoxicity of the treatment compositions was assessed and recorded on a scale of 0 to 5 based on visible symptoms. The number and size of the axil shoots was recorded every 6 to 8 days following the initial treatment application. […] An estimated average length of shoots in each plot could then be calculated according to the number of shoots assigned to each level. […]

TH241 tobacco = assay: Example 3 plot study: phytotoxicity on a scale of 0 to 5; format: in vivo; conditions: for Phytotoxicity: scale of 0 to 5
Description: A third study was conducted comparing the effects of various treatment compositions on TH241 tobacco. The study was designed in random blocks. Each test plot was formed by two rows of ten tobacco plants. Each treatment was applied to three separate plots. […] The first application was performed when the first axillary shoots were observed. Additional applications were performed when new axillary shoots were observed. Shoots longer than 3 cm were manually removed at the time of each application. The applications were performed using a manual backpack sprayer, spraying at a low pressure above the plant toward the stalk so that the composition ran down the stalk, contacting the leaf axils. Approximately 13 to 26 milliliters of composition were applied to each plant. The phytotoxicity of the treatment compositions was assessed and recorded on a scale of 0 to 5 based on visible symptoms. The number and size of the axil shoots was recorded every 7 to 14 days following the initial treatment application. Axillary shoots were assigned a level according to their length. Shoots less than 3 cm in length were assigned to level 1. Shoots between 3 and 15 cm were assigned to level 2. Shoots between 15 and 30 cm were assigned to level 3. Shoots between 30 and 45 cm were assigned to level 4. Shoots between 45 and 60 cm were assigned to level 5. And shoots greater than 60 cm were assigned to level 6. An estimated average length of shoots in each plot could then be calculated according to the number of shoots assigned to each level.
Phytotoxicity was assessed 9 days and 26 days after the first application of each treatment. […] Only mild symptoms of phytotoxicity were observed on the remaining plants. […] The phytotoxicity was likely more apparent due to the fact that by day 26, two pelargonic acid treatments had already been performed. […] No further evaluations were carried out.

Compound: CCCCCCCCC(=O)O [Pelargonic acid, pelargonic acid]
- Axillary Shoot Length Results ([1]; 5-Aug, D + 19 days): 1.3 Cd
- Axillary Shoot Length Results ([1]; 12-Aug, D + 26 days): 2.6 C
- Axillary Shoot Length Results ([1]; 21-Aug, D + 35 days): 1.2 Abc
- Axillary Shoot Length Results ([1]; 26-Jul, D + 9 days): 1.2 C
- Axillary Shoot Length Results ([1]; 29-Aug, D + 43 days): 2.3 bcde
- Effectiveness Results ([1]; Aug 5, D + 19 days): 61%
- Effectiveness Results ([1]; Aug 12, D + 26 days): 37%
- Effectiveness Results ([1]; Aug 21, D + 35 days): 80%
- Effectiveness Results ([1]; Aug 29, D + 43 days): 61%
- Effectiveness Results ([1]; July 26, D + 9 days): 39%
- Effectiveness ([1]; Oct. 10, D + 85 days): 8%
- Axillary Shoot Length Results ([1]; Oct. 10, D + 85 days): 5.5 B
- Effectiveness Results ([1]; Sept. 11, D + 56 days): 35%
- Axillary Shoot Length Results ([1]; Sept. 11, D + 56 days): 3.9 C
- Effectiveness Results ([1]; Sept. 24, D + 69 days): 16%
- Axillary Shoot Length Results ([1]; Sept. 24, D + 69 days): 5.1 C
- Effectiveness ([1]; Sept. 30, D + 75 days): 9%
- Axillary Shoot Length Results ([1]; Sept. 30, D + 75 days): 5.4 B
- shoot length ([1]; after only 9 days): ~3 cm
- day until which shoot length was the same as the standard treatment [2]: 27 days
- phytotoxicity symptoms (tobacco): highest levels of burns and deformation
- Phytotoxicity (TH241 tobacco; August 12, D + 26 days): 2.0 B
- symptoms of phytotoxicity (TH241 tobacco; August 21, after a third application): symptoms of phytotoxicity were still more pronounced
- Phytotoxicity (TH241 tobacco; July 26, D + 9 days): 1.6 C
